Format in all cases: cell-based
In assay [1] the test system is CWR22RV1 cells. In words: Combination with CDK4/6 inhibitor palbociclib, proliferation of CWR22RV1 prostate cancer cells. The following applies: for IC50: read-out: IC50 against CWR22RV1 cells. As to the method:
(§1) Prior to use, the stock solution was diluted in a ratio of 1:3 with DMSO and then further diluted in a ratio of 1:3 to obtain 9 gradient concentrations. Each concentration of compound was diluted in a ratio of 1:200 with culture medium (to ensure the concentration of DMSO in the culture system was 0.1%). Two wells were set for each concentration. 20 μL of diluted compound solution was added to the cell culture well (with a final concentration of 10 μM, 3.3 μM, 1.1 μM, etc.); the stock solution of palbociclib was diluted with the culture medium as 500 nM, 150 nM, 50 nM, 5 nM, respectively, and then 20 μL of diluted palbociclib solution was added to the cell culture well ([…]). The plate was gently shaken to mix well. In addition, three negative control wells containing only cells and three blank control wells containing only culture medium (6 wells being each added with DMSO diluted in a ratio of 1:200 using 20 μL of culture medium) were included. 2. Test Results: • (1) After the plate was cultured for 6 days, 10 μL of CCK-8 was added to each well, and then the plate was continually cultured in a 5% CO2 incubator at 37° C. for 2.5 h. • (2) The absorbance (OD value) was measured at 450 nm with a microplate reader. • (3) Data were analyzed using the Dose-response-inhibition equation in the software GraphPad Prisms 6 to obtain IC50 values. 3. Experimental Results

Another assay relates to MCF-7 cells. Put plainly: Combination with CDK4/6 inhibitor palbociclib, proliferation of MCF-7 breast cancer cells. The conditions noted are these: for IC50: Homo sapiens, read-out: IC50 against MCF-7 cells. As for the experimental part: as §1
Using the same method as in Example 4, CWR22RV1 cells were replaced with MCF-7 cells, and for the inhibitory activities against the proliferation of MCF-7 cells, the IC50 values (nM) of the compounds according to the present invention, palbociclib, and the combination of the compound according to the present invention and palbociclib were tested and calculated.

Another assay deals with LNCAP-AR. In words: Proliferation of LNCAP-AR prostate cancer cells (CCK-8). The following applies: prostate cancer cell line LNCAP-AR; read-out: IC50 against LNCAP-AR. As to the method: (§2) • (1) CWR22RV1 prostate cancer cells were subcultured in cell culture medium, and well-grown cells were inoculated into 96-well plates with 80 μL per well and 1500 cells per well, and then the plate was cultured overnight at 37° C. in a 5% CO2 incubator. • (2) Drug was prepared as 30 mM of stock solution with dimethylsulfoxide (DMSO). Prior to use, the stock solution was diluted in a ratio of 1:3 with DMSO and then further diluted in a ratio of 1:3 to obtain 9 gradient concentrations. Each concentration of compound was diluted in a ratio of 1:200 with culture medium (to ensure the concentration of DMSO in the culture system was 0.1%). Two wells were set for each concentration. 20 μL of diluted compound solution was added to the cell culture well (with a final concentration of 10 μM, 3.3 μM, 1.1 μM, etc.), and then the plate was gently shaken to mix well. In addition, three negative control wells containing only cells and three blank control wells containing only culture medium (6 wells being each added with DMSO diluted in a ratio of 1:200 using 20 μL of culture medium) were included. 2. Test Results: • (1) After the plate was cultured for 6 days, 10 μL of CCK-8 was added to each well, and then the plate was continually cultured in a 5% CO2 incubator at 37° C. for 2.5 h. • (2) The absorbance (OD value) was measured at 450 nm with a microplate reader. • (3) Data were analyzed using the Dose-response-inhibition equation in the software GraphPad Prisms 6 to obtain IC50 values. 3. Experimental Results
(§3) Using the same method as in Example 2, CWR22RV1 cells were replaced with tumor cells in Table 3, and for the inhibitory activities against these tumor cells, the IC50 values (nM) of the compounds according to the present invention were tested and calculated.

The test system of assay [2] is CWR22RV1 cells. In words: Proliferation of prostate cancer CWR22RV1 cells (CCK-8, 6 days). The following applies: CWR22Rv1, 144 h; 6 days, CCK-8; class symbols; read-out: IC50 against CWR22RV1 cells. As for the experimental part: as §2
A further assay has as its system MOLM-16. In words: Proliferation of MOLM-16 leukemia cells (CCK-8). The following applies: MOLM16; leukemia cell line MOLM-16; read-out: IC50 against MOLM-16. As for the experimental part:
as §2, §3

For another assay, the system named is LNCAP. In words: Proliferation of LNCAP prostate cancer cells (CCK-8). The conditions noted are these: Homo sapiens; prostate cancer cell line LNCAP; read-out: IC50 against LNCAP. As for the experimental part:
as §2, §3

Where [3] appears, read: compound 172 + palbociclib, in words.

Where two headings read alike, the source gives them in different places.

For orientation: IC50 means the midpoint of a concentration-inhibition curve. Turning to `CCO[C@H]1CC[C@H](n2c([C@@H]3CCOC(=O)N3c3ccc(Cl)c(F)c3)nc3cc(-c4c(C)noc4C)ccc32)CC1` [Compound 172, (S)-3-(4-chloro-3-fluorophenyl)-4-(5-(3,5-dimethylisoxazol-4-yl)-1-((trans)-4-ethoxycyclohexyl)-1H-benzo[d]imidazol-2-yl)-1,3-oxazinane-2-one], the IC50 in the assay with CWR22RV1 cells [1] (CWR22Rv1, 172 in combination with 10 nM palbociclib) was 0.026 µM; in the assay on CWR22RV1 cells [1] (CWR22Rv1, 172 in combination with 100 nM palbociclib), under 0.001 µM; in the assay with CWR22RV1 cells [1] (CWR22Rv1, 172 in combination with 100-300 nM of palbociclib), under 0.001 µM; in the assay on CWR22RV1 cells [1] (CWR22Rv1, administrated alone), 1.5 µM; in the assay with MCF-7 cells (MCF7, 172 in combination with 10 nM palbociclib) it was 0.027 µM; in the assay on MCF-7 cells (MCF7, 172 in combination with 100 nM palbociclib), 0.009 µM. Besides, the IC50 in the assay with MCF-7 cells (MCF7, 172 in combination with 300 nM palbociclib) is 0.007 µM; in the assay on MCF-7 cells (MCF7, 172 in combination with 100-300 nM of palbociclib) it was under 0.01 µM; in the assay with MCF-7 cells (MCF7, administrated alone), 0.072 µM; in the assay with LNCAP-AR, under 0.5 µM; in the assay on CWR22RV1 cells [2] it was 0.5 to 2 µM; with MOLM-16, under 0.5 µM. In the assay with LNCAP, the IC50 was under 0.5 µM. The “effect of combination with palbociclib on CWR22RV1 prostate cancer cells” value in the assay with CWR22RV1 cells [1] (setting [3]) is reported as “synergistic inhibitory effect”. For the same compound, the “effect of combination with palbociclib on MCF-7 breast cancer cells” value in the assay with MCF-7 cells (setting [3]) is given as “synergistic inhibitory effect”.

Source of the values: patent publication US12497392B2, “EP300/CBP inhibitor” (HINOVA PHARMACEUTICALS INC., priority 2019, dated 2025).
